The text below walks through data of patent US20230248626A1, “Compositions Comprising (Bio)-Alkanediols” (Symrise AG, priority 0001, published 2023).

The test system of one data set is Aspergillus brasiliensis. Put plainly: MIC and Kull synergy index of 1,2-/2,3-alkanediol mixtures. Type of data set: cell-based.
Data set [1] is described as follows: Sensory evaluation on the backside of the hand (spreading, fatty/greasy skin feel, absorption), untrained panellists. The note with it: blend with Caprylic Capric Triglyceride (CCT) (neutral oil); for Absorption/remaining residue Delta: rows r187-r195, vs without; for Absorption/remaining residue with alkanediol: rows r187-r195, scale 1 to 5. The procedure:
For evaluating the sensory behaviour, liquid lipophilic components specified in the following table were blended with 1,2-heptanediol or 2,3-heptanediol or a mixture of 1,2-heptanediol and 2,3-heptanediol or 1,2-octanediol or 2,3-octanediol or a mixture of 1,2-octanediol and 2,3-octanediol (formulation) in a ratio of 85:15 and assessed by untrained panellists in comparison to the liquid lipophilic component without addition of the specified alkanediols (placebo).
The test procedure was carried as follows: For evaluating the sensory behaviour of 1,2-alkanediols and/or 2,3-alkanediols in combination with different liquid lipophilic components, oil components specified in the following table were blended with a 1,2-alkanediol or a 2,3-alkanediol or a mixture including a 1,2-alkanediol and a 2,3-alkanediol in a ratio as specified in Table 53 and assessed by untrained panellists in comparison to the liquid lipophilic component without addition of the 1,2-alkanediol or 2,3-alkanediol or the mixture including a 1,2-alkanediol and 2,3-alkanediol (placebo).
Test Procedure: • Hands were pre-washed with liquid soap by following a defined procedure; 30 μl of corresponding sample was applied on the backside of each hand (randomized); • After 30 s the spreading behaviour of the respective formulation on skin was evaluated versus the respective oil component without 1,2-heptanediol on a scale from 1 to 5 (1=low spreading; 5=high spreading); • The samples were distributed with the fingertips of middle and forefinger with 2×5 cycles; • After 2 minutes, the fatty/greasy skin feel was evaluated on a scale from 1 to 5 (1=low fatty/greasy skin feel; 5=high fatty/greasy skin feel); • Furthermore the applicants were asked to assess the absorption, i.e. the impression of amount of remaining residue on the skin on a scale from 1 to 5 (1=low absorption; 5=high absorption).

Where two headings read alike, the source gives them in different places.

For the compound `CCCCC(O)CO` (stereo not drawn) [1,2-hexanediol], in the data set on Aspergillus brasiliensis (single 1,2-alkanediol, read-out: MIC Component A), the MIC (usually the lowest concentration that inhibits growth of the organism) came out at 7.5 mg/mL. Besides, in data set [1], the “Absorption/remaining residue Delta” value was determined as 1.8 and the “Absorption/remaining residue with alkanediol” value worked out at 2.8.

In the case of `CCCC(O)C(C)O` (stereo not drawn) [2,3-hexandiol, 2,3-hexanediol], in the data set with Aspergillus brasiliensis (single 2,3-alkanediol, read-out: MIC Component B), the MIC came to 20 mg/mL. Further, in data set [1], the “Absorption/remaining residue Delta” value was found to be 1.8 and the “Absorption/remaining residue with alkanediol” value is 2.8.
